Measured values reported in patent US4897483A, “Amino acid derivatives as antihypertensives” (Asahi Breweries Ltd., priority 1987, dated 1990).

Columns and labels:
rabbit lung ACE = target: T1, rabbit lung ACE (Oryctolagus cuniculus, UniProt P12822); test: Inhibition of rabbit lung ACE by the method of Friedland and Silverstein; assay type: biochemical; conditions: read-out: IC50 (concentration inhibiting 50% of the activity of rabbit lung ACE)
T1 construct: activity of rabbit lung ACE; from tissue; host or cells: rabbit lung
T1 sequence (P12822 34-1310): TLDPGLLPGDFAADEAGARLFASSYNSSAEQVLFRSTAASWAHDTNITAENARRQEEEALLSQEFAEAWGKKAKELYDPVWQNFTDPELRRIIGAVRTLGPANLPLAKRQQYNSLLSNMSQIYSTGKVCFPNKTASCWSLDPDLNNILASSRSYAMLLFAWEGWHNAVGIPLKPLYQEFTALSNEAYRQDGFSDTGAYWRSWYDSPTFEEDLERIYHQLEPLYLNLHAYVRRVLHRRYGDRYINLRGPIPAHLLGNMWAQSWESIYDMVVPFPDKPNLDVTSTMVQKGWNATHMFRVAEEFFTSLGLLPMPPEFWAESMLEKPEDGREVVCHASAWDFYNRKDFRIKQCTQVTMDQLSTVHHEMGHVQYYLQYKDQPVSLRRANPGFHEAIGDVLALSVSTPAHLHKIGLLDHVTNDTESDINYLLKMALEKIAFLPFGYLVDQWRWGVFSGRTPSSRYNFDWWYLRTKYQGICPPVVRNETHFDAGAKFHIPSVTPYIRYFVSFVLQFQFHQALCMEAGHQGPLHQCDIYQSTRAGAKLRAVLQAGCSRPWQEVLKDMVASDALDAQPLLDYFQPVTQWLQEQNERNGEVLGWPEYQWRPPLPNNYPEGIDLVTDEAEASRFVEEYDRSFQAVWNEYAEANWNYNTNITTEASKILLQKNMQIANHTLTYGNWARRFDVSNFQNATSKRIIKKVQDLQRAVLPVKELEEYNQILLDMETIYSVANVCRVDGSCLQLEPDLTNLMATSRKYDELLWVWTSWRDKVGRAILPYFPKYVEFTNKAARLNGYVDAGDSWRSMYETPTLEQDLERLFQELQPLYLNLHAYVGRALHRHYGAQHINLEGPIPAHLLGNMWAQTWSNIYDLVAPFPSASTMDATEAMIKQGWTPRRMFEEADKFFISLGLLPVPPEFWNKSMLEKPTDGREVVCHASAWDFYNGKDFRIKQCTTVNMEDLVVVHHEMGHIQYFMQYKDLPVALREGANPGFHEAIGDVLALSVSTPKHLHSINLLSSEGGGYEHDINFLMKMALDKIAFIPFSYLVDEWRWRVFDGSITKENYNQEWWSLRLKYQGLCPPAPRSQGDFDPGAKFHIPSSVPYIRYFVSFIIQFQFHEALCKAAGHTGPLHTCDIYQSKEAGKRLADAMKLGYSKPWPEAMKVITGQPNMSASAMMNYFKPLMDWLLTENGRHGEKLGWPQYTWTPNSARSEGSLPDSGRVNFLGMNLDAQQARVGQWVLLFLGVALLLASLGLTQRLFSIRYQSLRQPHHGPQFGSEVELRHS
Protocol: The evaluation of converting enzyme inhibitors is introduced from the analysis of enzyme inhibition in a test tube. One example of inhibition activity of the compounds of the present invention calculated from the method of Friedland & Silverstein [Am. J. Clin. Pathol.
*Concentration inhibiting 50% of the activity of rabbit lung ACE was
determined by the method of Friedland and Silverstein.

[1] = test system: pressor response to Angiotensin I (AI); test: Inhibition of the pressor response to angiotensin I after i.v. administration, area under the AI inhibition response vs. time curve; assay type: in vivo; parameters: unit not given beside the values; conditions: test compound 50 μg/Kg i.v.; AI 300 ng/Kg into femoral vein; 0 to 360 min
Protocol: **Angiotensin I (AI, 300 ng/Kg) were injected into the femoral vein at
intervals of 10 min until the constant pressor response to AI was
180, 300 and 360 min after i.v. administration of the test compound (50
μg/Kg), and AVC (area under the curve) was calculated by the AI
inhibition response vs. time curves for 0 to 360 min.

CC(NC(CCCCCCN)C(=O)O)C(=O)N1CCCC1C(=O)O (stereo not drawn) [Compound 12, reference compound]
IC50 (rabbit lung ACE): 1.4 nM | (iv) AUC (area under the AI inhibition response vs. time curve) [1]: 368

C[C@H](N[C@@H](CCCCC1CCNCC1)C(=O)O)C(=O)N1CCC[C@H]1C(=O)O [Compound 2, N-[1(S)-carboxy-5-(4-piperidyl)pentyl]-L-alanyl-L-proline]
IC50 (rabbit lung ACE): 1 nM | (iv) AUC (area under the AI inhibition response vs. time curve) [1]: 429

NCCCC[C@H](N[C@@H](CCCCC1CCNCC1)C(=O)O)C(=O)N1CCC[C@H]1C(=O)O [Compound 5, N^α -[1(S)-carboxy-5-(4-piperidyl)pentyl]-L-lysyl-L-proline]
IC50 (rabbit lung ACE): 1 nM | (iv) AUC (area under the AI inhibition response vs. time curve) [1]: 460

C[C@H](N[C@@H](CCCCCCCN)C(=O)O)C(=O)N1CCC[C@H]1C(=O)O [Compound 1, N-[1(S)-carboxy-8-aminooctyl]-L-alanyl-L-proline]
IC50 (rabbit lung ACE): 0.75 nM | (iv) AUC (area under the AI inhibition response vs. time curve) [1]: 509

C[C@H](N[C@@H](CCCCC1CCNCC1)C(=O)O)C(=O)N1[C@H](C(=O)O)C[C@@H]2CCCC[C@@H]21 [Compound 11, 1-[N-[1(S)-carboxy-5-(4-piperidyl)pentyl]-L-alanyl]-(2α,3aβ,7aβ)-octahydro-1H-indole-2(S)-carboxylic acid]
IC50 (rabbit lung ACE): 0.62 nM

C[C@H](N[C@@H](CCCCCC1CCNCC1)C(=O)O)C(=O)N1[C@H](C(=O)O)C[C@@H]2CCCC[C@@H]21 [Compound 10, 1-[N-[1(S)-carboxy-6-(4-piperidyl)hexyl]-L-alanyl]-(2α,3aβ,7aβ)-octahydro-1H-indole-2(S)-carboxylic acid]
IC50 (rabbit lung ACE): 0.9 nM

C[C@H](N[C@@H](CCCCCC1CCNCC1)C(=O)O)C(=O)N1CCC[C@H]1C(=O)O [Compound 3, N-[1(S)-carboxy-6-(4-piperidyl)hexyl]-L-alanyl-L-proline]
IC50 (rabbit lung ACE): 1.1 nM | (iv) AUC (area under the AI inhibition response vs. time curve) [1]: 424

NCCCC[C@H](N[C@@H](CCCCCC1CCNCC1)C(=O)O)C(=O)N1CCC[C@H]1C(=O)O [Compound 9, N^α -[1(S)-carboxy-6-(4-piperidyl)hexyl]-L-lysyl-L-proline]
IC50 (rabbit lung ACE): 1 nM

NCCCCCCC[C@H](N[C@@H](CCCCN)C(=O)N1CCC[C@H]1C(=O)O)C(=O)O [Compound 4, N^α -[1(S)-carboxy-8-aminooctyl]-L-lysyl-L-proline]
IC50 (rabbit lung ACE): 0.7 nM | (iv) AUC (area under the AI inhibition response vs. time curve) [1]: 431
